Values of other authors, collected in paper PMC6399674 (The Journal of Organic Chemistry, 2019).
Where two headings read alike, the source gives them in different places.

Biological target: T1, lectin LecA (Pseudomonas aeruginosa, UniProt Q05097)
T1 sequence (Q05097 1-122): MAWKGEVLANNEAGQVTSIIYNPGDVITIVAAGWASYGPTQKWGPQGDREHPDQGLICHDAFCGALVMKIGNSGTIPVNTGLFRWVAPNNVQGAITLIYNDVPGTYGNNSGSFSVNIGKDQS
Settings: ITC

Row | SMILES | n (stoichiometry) | ΔG | ΔH | –TΔS [kcal/mol] | Kd (as stated in text) [µM] | Kd [µM]
1 | O=C[C@H](O)[C@@H](O)[C@@H](O)[C@H](O)CO [D-dalactose, galactose] | 1.1 | –5.5 kcal/mol | –7.9 kcal/mol | 2.3 | 70 to 90 | –
2 | OC[C@H]1O[C@@H](Oc2ccccc2)[C@H](O)[C@@H](O)[C@H]1O [Gal-β-OPh] | 0.9 | –6.9 kcal/mol | –11.2 kcal/mol | 4.8 | ~9 | 8.8
